Patent publication US20130303509A1, “NAMPT INHIBITORS” (AbbVie Inc., priority 2012, published 2013)
Values belong to the compound of their own block, whether it stands above or below them.

Test system: PC3 cells
Experiment: NAMPT Cell Proliferation Assay
Type: cell-based
Settings: Homo sapiens, PC-3, 120 h, 5 days incubation, cell viability by Cell Titer Glo
Method in brief: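 Seeded at 500 cells/well in RPMI with 10% heat-inactivated FBS and left to attach overnight at 37° C, 5% CO2. Compounds were added as 10-fold dilutions […] for 5 days, then viability was read by CellTiter-Glo. IC50s came from sigmoidal fits of percent inhibition.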

Compound: O=C(Nc1ccc(OC2CN(C(=O)c3ccc(F)cc3)C2)cc1)C1CN(c2ccnnc2)C1 [Example 199, N-(4-{[1-(4-fluorobenzoyl)azetidin-3-yl]oxy}phenyl)-1-(pyridazin-4-yl)azetidine-3-carboxamide]
IC50: 97.4 nM

Compound: O=C(Nc1ccc(OC2CN(C(=O)c3ccc(F)cc3F)C2)cc1)C1CN(c2ccnnc2)C1 [Example 200, N-(4-{[1-(2,4-difluorobenzoyl)azetidin-3-yl]oxy}phenyl)-1-(pyridazin-4-yl)azetidine-3-carboxamide]
IC50: 71.9 nM

Compound: O=C(Nc1ccc(OC2CN(C(=O)C(F)(F)c3ccccc3)C2)cc1)C1CN(c2ccnnc2)C1 [Example 201, N-[4-({1-[difluoro(phenyl)acetyl]azetidin-3-yl}oxy)phenyl]-1-(pyridazin-4-yl)azetidine-3-carboxamide]
IC50: 60.9 nM

Compound: O=C(Nc1ccc(OC2CN(C(=O)C3CCC(F)(F)CC3)C2)cc1)C1CN(c2ccnnc2)C1 [Example 202, N-[4-({1-[(4,4-difluorocyclohexyl)carbonyl]azetidin-3-yl}oxy)phenyl]-1-(pyridazin-4-yl)azetidine-3-carboxamide]
IC50: 168 nM

Compound: O=C(Nc1ccc(OC2CN(C(=O)Cc3ccc(F)cc3)C2)cc1)C1CN(c2ccnnc2)C1 [Example 203, N-[4-({1-[(4-fluorophenyl)acetyl]azetidin-3-yl}oxy)phenyl]-1-(pyridazin-4-yl)azetidine-3-carboxamide]
IC50: 606 nM

Compound: O=C(Nc1ccc(C2CCN(C(=O)CC3CCCC3)CC2)cc1)[C@H]1CCN(c2cccnc2)C1 [Example 204, (3S)—N-{4-[1-(cyclopentylacetyl)piperidin-4-yl]phenyl}-1-(pyridin-3-yl)pyrrolidine-3-carboxamide]
IC50: 24.5 nM

Compound: O=C(Nc1ccc(OC2CN(C(=O)c3ccc(C(F)(F)F)cc3)C2)cc1)C1CN(c2ccnnc2)C1 [Example 205, 1-(pyridazin-4-yl)-N-[4-({1-[4-(trifluoromethyl)benzoyl]azetidin-3-yl}oxy)phenyl]azetidine-3-carboxamide]
IC50: 38.7 nM

Compound: O=C(Nc1ccc(OC2CN(C(=O)c3ccccc3)C2)cc1)C1CN(c2ccnnc2)C1 [Example 206, N-{4-[(1-benzoylazetidin-3-yl)oxy]phenyl}-1-(pyridazin-4-yl)azetidine-3-carboxamide]
IC50: 67.4 nM

Compound: CC(C)(O)C(=O)N1CC(Oc2ccc(NC(=O)C3CN(c4ccnnc4)C3)cc2)C1 [Example 207, N-(4-{[1-(2-hydroxy-2-methylpropanoyl)azetidin-3-yl]oxy}phenyl)-1-(pyridazin-4-yl)azetidine-3-carboxamide]
IC50: 671 nM

Compound: O=C(Nc1ccc(OC2CN(C(=O)C3CCOC3)C2)cc1)C1CN(c2ccnnc2)C1 (centres unmarked) [Example 208, 1-(pyridazin-4-yl)-N-(4-{[1-(tetrahydrofuran-3-ylcarbonyl)azetidin-3-yl]oxy}phenyl)azetidine-3-carboxamide]
IC50: 593 nM

Compound: O=C(Nc1ccc(OC2CN(C(=O)c3ccoc3)C2)cc1)C1CN(c2ccnnc2)C1 [Example 209, N-(4-{[1-(furan-3-ylcarbonyl)azetidin-3-yl]oxy}phenyl)-1-(pyridazin-4-yl)azetidine-3-carboxamide]
IC50: 81.6 nM

Compound: CCCCC(=O)N1CC(Oc2ccc(NC(=O)C3CN(c4ccnnc4)C3)cc2)C1 [Example 210, N-{4-[(1-pentanoylazetidin-3-yl)oxy]phenyl}-1-(pyridazin-4-yl)azetidine-3-carboxamide]
IC50: 62.7 nM

Compound: O=C(Nc1ccc(OC2CCN(C(=O)c3ccccc3Cl)CC2)cc1)C1CN(c2cccnn2)C1 [Example 211, N-(4-{[1-(2-chlorobenzoyl)piperidin-4-yl]oxy}phenyl)-1-(pyridazin-3-yl)azetidine-3-carboxamide]
IC50: 5.94 nM

Compound: CC[C@H](C)C(=O)N1CCC(Oc2ccc(NC(=O)C3CN(c4cccnn4)C3)cc2)CC1 [Example 212, N-[4-({1-[(2S)-2-methylbutanoyl]piperidin-4-yl}oxy)phenyl]-1-(pyridazin-3-yl)azetidine-3-carboxamide]
IC50: 5.79 nM

Compound: O=C(Nc1ccc(OC2CCN(C(=O)c3nccs3)CC2)cc1)C1CN(c2cccnn2)C1 [Example 213, 1-(pyridazin-3-yl)-N-(4-{[1-(1,3-thiazol-2-ylcarbonyl)piperidin-4-yl]oxy}phenyl)azetidine-3-carboxamide]
IC50: 6.88 nM

Compound: O=C(Nc1ccc(OC2CCN(C(=O)C3CCOCC3)CC2)cc1)C1CN(c2cccnn2)C1 [Example 214, 1-(pyridazin-3-yl)-N-(4-{[1-(tetrahydro-2H-pyran-4-ylcarbonyl)piperidin-4-yl]oxy}phenyl)azetidine-3-carboxamide]
IC50: 9.09 nM

Compound: O=C(Nc1ccc(OC2CCN(C(=O)C(F)(F)c3ccccc3)CC2)cc1)C1CN(c2cccnn2)C1 [Example 215, N-[4-({1-[difluoro(phenyl)acetyl]piperidin-4-yl}oxy)phenyl]-1-(pyridazin-3-yl)azetidine-3-carboxamide]
IC50: 6.95 nM

Compound: O=C(Nc1ccc(OC2CCN(C(=O)C3CCC(F)(F)CC3)CC2)cc1)C1CN(c2cccnn2)C1 [Example 216, N-[4-({1-[(4,4-difluorocyclohexyl)carbonyl]piperidin-4-yl}oxy)phenyl]-1-(pyridazin-3-yl)azetidine-3-carboxamide]
IC50: 5.99 nM

Results, then the compound that gave them:

IC50: 87.9 nM
Compound: Cc1ncccc1N1CC(C(=O)Nc2ccc(C3CCN(C(=O)CC(F)(F)F)CC3)cc2)C1 [Example 182, 1-(2-methylpyridin-3-yl)-N-{4-[1-(3,3,3-trifluoropropanoyl)piperidin-4-yl]phenyl}azetidine-3-carboxamide]

IC50: 346 nM
Compound: COCCOCC(=O)N1CCC(c2ccc(NC(=O)C3CN(c4cccnc4C)C3)cc2)CC1 [Example 183, N-(4-{1-[(2-methoxyethoxy)acetyl]piperidin-4-yl}phenyl)-1-(2-methylpyridin-3-yl)azetidine-3-carboxamide]

IC50: 604 nM
Compound: Cc1ncccc1N1CC(C(=O)Nc2ccc(C3CCN(C(=O)CCN4CCOCC4)CC3)cc2)C1 [Example 184, 1-(2-methylpyridin-3-yl)-N-(4-{1-[3-(morpholin-4-yl)propanoyl]piperidin-4-yl}phenyl)azetidine-3-carboxamide]

IC50: 74.2 nM
Compound: Cc1ncccc1N1CC(C(=O)Nc2ccc(C3CCN(C(=O)C(C)(C)C)CC3)cc2)C1 [Example 185, N-{4-[1-(2,2-dimethylpropanoyl)piperidin-4-yl]phenyl}-1-(2-methylpyridin-3-yl)azetidine-3-carboxamide]

IC50: 627 nM
Compound: Cc1ccc(C(=O)N2CCC(c3ccc(NC(=O)C4CN(c5cccnc5C)C4)cc3)CC2)s1 [Example 186, 1-(2-methylpyridin-3-yl)-N-(4-{1-[(5-methylthiophen-2-yl)carbonyl]piperidin-4-yl}phenyl)azetidine-3-carboxamide]

IC50: 20.6 nM
Compound: Cc1ncccc1N1CC(C(=O)Nc2ccc(C3CCN(C(=O)c4cccs4)CC3)cc2)C1 [Example 187, 1-(2-methylpyridin-3-yl)-N-{4-[1-(thiophen-2-ylcarbonyl)piperidin-4-yl]phenyl}azetidine-3-carboxamide]

IC50: 22.4 nM
Compound: Cc1ncccc1N1CC(C(=O)Nc2ccc(C3CCN(C(=O)c4cccn4C)CC3)cc2)C1 [Example 188, 1-(2-methylpyridin-3-yl)-N-(4-{1-[(1-methyl-1H-pyrrol-2-yl)carbonyl]piperidin-4-yl}phenyl)azetidine-3-carboxamide]

IC50: 14.6 nM
Compound: Cc1ncccc1N1CC(C(=O)Nc2ccc(C3CCN(C(=O)c4ccco4)CC3)cc2)C1 [Example 189, N-{4-[1-(furan-2-ylcarbonyl)piperidin-4-yl]phenyl}-1-(2-methylpyridin-3-yl)azetidine-3-carboxamide]

IC50: 694 nM
Compound: Cc1ncccc1N1CC(C(=O)Nc2ccc(C3CCN(C(=O)CCN4CCCCC4)CC3)cc2)C1 [Example 190, 1-(2-methylpyridin-3-yl)-N-(4-{1-[3-(piperidin-1-yl)propanoyl]piperidin-4-yl}phenyl)azetidine-3-carboxamide]

IC50: 677 nM
Compound: CCOCC(=O)N1CCC(c2ccc(NC(=O)C3CN(c4cccnc4C)C3)cc2)CC1 [Example 191, N-{4-[1-(ethoxyacetyl)piperidin-4-yl]phenyl}-1-(2-methylpyridin-3-yl)azetidine-3-carboxamide]

IC50: 69.3 nM
Compound: Cc1ncccc1N1CC(C(=O)Nc2ccc(C3CCN(C(=O)CC(C)(C)C)CC3)cc2)C1 [Example 192, N-{4-[1-(3,3-dimethylbutanoyl)piperidin-4-yl]phenyl}-1-(2-methylpyridin-3-yl)azetidine-3-carboxamide]

IC50: 71 nM
Compound: CCC(C)(C)C(=O)N1CCC(c2ccc(NC(=O)C3CN(c4cccnc4C)C3)cc2)CC1 [Example 193, N-{4-[1-(2,2-dimethylbutanoyl)piperidin-4-yl]phenyl}-1-(2-methylpyridin-3-yl)azetidine-3-carboxamide]

IC50: 124 nM
Compound: CCCC(=O)N1CCC(c2ccc(NC(=O)C3CN(c4cccnc4C)C3)cc2)CC1 [Example 194, N-[4-(1-butanoylpiperidin-4-yl)phenyl]-1-(2-methylpyridin-3-yl)azetidine-3-carboxamide]

IC50: 701 nM
Compound: COCC(=O)N1CCC(c2ccc(NC(=O)C3CN(c4cccnc4C)C3)cc2)CC1 [Example 195, N-{4-[1-(methoxyacetyl)piperidin-4-yl]phenyl}-1-(2-methylpyridin-3-yl)azetidine-3-carboxamide]

IC50: 111 nM
Compound: Cc1ncccc1N1CC(C(=O)Nc2ccc(C3CCN(C(=O)C4CCCCC4)CC3)cc2)C1 [Example 196, N-{4-[1-(cyclohexylcarbonyl)piperidin-4-yl]phenyl}-1-(2-methylpyridin-3-yl)azetidine-3-carboxamide]

IC50: 103 nM
Compound: Cc1ncccc1N1CC(C(=O)Nc2ccc(C3CCN(C(=O)CC(C)C)CC3)cc2)C1 [Example 197, N-{4-[1-(3-methylbutanoyl)piperidin-4-yl]phenyl}-1-(2-methylpyridin-3-yl)azetidine-3-carboxamide]

IC50: 71.6 nM
Compound: Cc1ncccc1N1CC(C(=O)Nc2ccc(C3CCN(C(=O)C(C)C(C)C)CC3)cc2)C1 (centres unmarked) [Example 198, N-{4-[1-(2,3-dimethylbutanoyl)piperidin-4-yl]phenyl}-1-(2-methylpyridin-3-yl)azetidine-3-carboxamide]
